The values below come from BindingDB's records for doi:10.1021/jm020999w (University of Firenze, 2003).

The structures appear in SMILES notation.

The test concerns the target Gamma-aminobutyric acid receptor subunit alpha-1/beta-2/gamma-2 (Rattus norvegicus, UniProt P62813+P63138+P18508). The test is described as follows: Binding affinity for recombinant rat GABA-A receptor alpha-1-beta-2-gamma-2 subunits expressed in HEK293 cells.

Gamma-aminobutyric acid receptor subunit alpha-1/beta-2/gamma-2, sequence (P62813 whole entry): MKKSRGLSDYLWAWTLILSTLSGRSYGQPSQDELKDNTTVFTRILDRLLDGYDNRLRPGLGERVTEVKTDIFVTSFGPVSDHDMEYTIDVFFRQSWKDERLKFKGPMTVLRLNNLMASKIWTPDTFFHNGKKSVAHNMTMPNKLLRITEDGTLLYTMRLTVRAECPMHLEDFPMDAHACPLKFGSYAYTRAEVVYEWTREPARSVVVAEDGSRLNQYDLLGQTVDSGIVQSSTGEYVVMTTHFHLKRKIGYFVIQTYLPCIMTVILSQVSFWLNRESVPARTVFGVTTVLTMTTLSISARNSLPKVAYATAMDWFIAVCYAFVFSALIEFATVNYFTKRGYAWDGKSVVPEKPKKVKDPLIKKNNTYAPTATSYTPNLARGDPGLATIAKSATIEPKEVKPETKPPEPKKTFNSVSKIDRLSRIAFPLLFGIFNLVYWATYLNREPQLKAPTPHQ
Gamma-aminobutyric acid receptor subunit alpha-1/beta-2/gamma-2, sequence (P63138 whole entry): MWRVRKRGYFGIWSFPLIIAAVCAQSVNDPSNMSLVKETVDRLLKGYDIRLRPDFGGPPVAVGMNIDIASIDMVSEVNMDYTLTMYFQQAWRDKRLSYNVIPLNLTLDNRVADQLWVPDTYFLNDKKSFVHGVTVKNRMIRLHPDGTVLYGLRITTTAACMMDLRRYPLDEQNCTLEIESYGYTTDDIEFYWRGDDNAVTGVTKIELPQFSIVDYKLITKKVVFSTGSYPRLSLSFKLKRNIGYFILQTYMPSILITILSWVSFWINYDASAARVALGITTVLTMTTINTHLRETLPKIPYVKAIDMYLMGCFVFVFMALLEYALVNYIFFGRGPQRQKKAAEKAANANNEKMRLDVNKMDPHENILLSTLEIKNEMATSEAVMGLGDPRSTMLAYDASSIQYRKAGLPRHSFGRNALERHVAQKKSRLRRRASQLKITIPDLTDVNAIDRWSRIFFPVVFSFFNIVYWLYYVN
Gamma-aminobutyric acid receptor subunit alpha-1/beta-2/gamma-2, sequence (P18508 whole entry): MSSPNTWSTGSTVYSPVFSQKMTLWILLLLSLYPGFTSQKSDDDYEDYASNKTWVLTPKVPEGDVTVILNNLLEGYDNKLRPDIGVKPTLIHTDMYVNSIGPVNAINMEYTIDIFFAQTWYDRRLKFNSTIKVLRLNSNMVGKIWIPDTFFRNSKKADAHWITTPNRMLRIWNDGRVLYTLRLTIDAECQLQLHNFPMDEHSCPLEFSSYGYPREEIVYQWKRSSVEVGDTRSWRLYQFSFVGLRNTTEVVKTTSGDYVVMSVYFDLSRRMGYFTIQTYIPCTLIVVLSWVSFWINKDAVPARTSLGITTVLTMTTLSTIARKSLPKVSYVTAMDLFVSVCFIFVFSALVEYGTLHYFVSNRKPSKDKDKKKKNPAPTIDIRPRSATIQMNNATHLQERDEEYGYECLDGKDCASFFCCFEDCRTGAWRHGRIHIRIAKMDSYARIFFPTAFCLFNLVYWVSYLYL

`O=c1c(-c2ccsc2)cnc2c(-c3cccc(Br)c3)c[nH]n12` [3-(3-Bromo-phenyl)-6-thiophen-3-yl-4H-pyrazolo[1,5-a]pyrimidin-7-one]: the Ki (as a rule, a dissociation constant, usually derived from enzyme kinetics or from competition with a known ligand) was determined as 10 nM.

Regarding `O=c1c(-c2ccsc2)cnc2c(-c3cccc(C(F)(F)F)c3)c[nH]n12` [6-Thiophen-3-yl-3-(3-trifluoromethyl-phenyl)-4H-pyrazolo[1,5-a]pyrimidin-7-one], the Ki was determined as 10 nM.
